Source: patent US11560370B1, “5-membered heteroaryl carboxamide compounds for treatment of HBV” (Assembly Biosciences, Inc., priority 2018, dated 2023)

test system: HBV; assay: Viral production from HepAD38 cells, viral load by qPCR of HBV core sequence; assay type: cell-based; conditions: 5 days, supernatant HBV DNA by qPCR, read-out: Viral Load EC50 Activity range
Protocol: Assay Measuring Activity of Test Compounds on Viral Production from HepAD38 Cells
HepAD38 cells grown in a T-150 flask (Corning, cat #: 430825) with Growth Medium (DMEM/F12 (1:1) (Hyclone, cat #: SH30023.02), 1× Pen/Strep (Invitrogen, cat #: 15140-122), 10% FBS (Tissue Culture Biologics, cat #: 101), 250 μg/mL G418 (Alfa Aesar, cat #: J62671), 1 μg/mL Tetracycline (Teknova, cat #: T3320)) were detached with 0.25% trypsin-EDTA to (Invitrogen, cat #: 25200-056). Tetracycline-free treatment medium (15 mL DMEM/F12 (1:1) 1× Pen/step, with 2% FBS, Tet-system approved (Clontech, cat #: 631106) were then added to mix, transferred into a 50 ml conical tube (Falcon, cat #: 21008-918,) and spun at 1300 rpm for 5 min. Pelleted cells were then re-suspended/washed with 50 mL of 1×DPBS (Invitrogen, cat #: 14190-136) 2 times and 50 mL treatment medium twice. HepAD38 cells were then re-suspended with 10 mL of treatment medium, syringed and counted. Wells of 96-well clear bottom TC plate (Corning, cat #: 3904,) were seeded at 50,000 cells/well in 180 μL of treatment medium, and 20 μL of either 10% DMSO (Sigma, cat #: D4540) as controls or a 10× solution of test compounds in 10% DMSO in treatment media was added for a final compound concentration starting at 10 μM, and plates were incubated in 5% CO2 incubator at 37° C. for 5 days.
Subsequently viral load production was assayed by quantitative PCR (qPCR) of the HBV core sequence. PCR reaction mixture containing forward primers HBV-f 5′-CTGTGCCTTGGGTGGCTTT-3′ (IDT DNA), Reverse primers HBV-r 5′-[…]-3′ (IDT DNA), Fluorescent TaqMan™ Probes HBV-probe 5′-FAM/AGCTCCAAA/ZEN/[…]/3IABkFQ-3′ (IDT DNA), 10 μL/well of PerfeCTa® qPCR ToughMix® (Quanta Biosciences, Cat #: 95114-05K), and 6 μL/well of DEPC water (Alfa Aesar, cat #: J62087) was prepared. […] of supernatant was added to 16 μL of the reaction mixture in a qPCR plate (Applied Biosytems, Cat #: 4309849), sealed with a film (Applied Biosystems, Cat #: 4311971), centrifuged for a few seconds, and subsequently run on an Applied Biosystems VIIA7. The PCR mixture was incubated at 45° C. for 5 min, then 95° C. for 10 min, followed by 40 cycles of 10 seconds at 95° C. and 20 seconds at 60° C. Viral load was quantified against known HBV DNA standards by using ViiA™ 7 Software. Viral load in the supernatant from wells with treated cells were compared against viral load in supernatant from DMSO control wells (>3 per plate). Cell viability assay was performed with CellTiter-Glo Luminescent Cell Viability Assay (Promega, cat #: G7573) with modification. Mixed appropriate amount of CellTiter-Glo (CTG) 1×DPBS in a 1:1 ratio, added 100 uL of the mixture to each well followed completely removal of all supernatant in each well without touching cell surface. Incubated the plate at room temperature for 10 min on an orbital shaker, and then read the plate with a plate reader (TECAN M1000 or Envision). EC50 or CC50 values were calculated through curve-fitting of the four-parameter nonlinear-logistic-regression model (GraphPad Prism or Dotmatics). CC50 values were all >10 μM.

Compound | EC50 [nM]
Cn1cc(C2CCC(c3nn(C)c(N)c3C(=O)Nc3ccc(F)c(Cl)c3)C2)cn1 (single isomer, unassigned) [AIA-004-D, 5-Amino-N-(3-chloro-4-fluorophenyl)-1-methyl-3-(3-(1-methyl-1H-pyrazol-4-yl)cyclopentyl)-1H-pyrazole-4-carboxamide] | < 100
CS(=O)(=O)CC1(O)CC2CC(c3n[nH]c(N)c3C(=O)Nc3ccc(F)c(Cl)c3)CC2C1 (stereo not shown) [AIA-310] | < 100
Cn1nc(C2CC3CC(O)(C(=O)NC4CC4)CC3C2)c(C(=O)Nc2ccc(F)c(Cl)c2)c1N (stereo not shown) [AIA-274-2, 5-Amino-N-(3-chloro-4-fluorophenyl)-3-(5-(cyclopropylcarbamoyl)-5-hydroxyoctahydropentalen-2-yl)-1-methyl-1H-pyrazole-4-carboxamide] | < 100
COc1cc(-c2ncc[nH]2)ccc1C1CCC(c2nn(C)c(N)c2C(=O)Nc2ccc(F)c(Cl)c2)C1 (single isomer, unassigned) [AIA-352-1, 3-(3-(4-(1H-Imidazol-2-yl)-2-methoxyphenyl)cyclopentyl)-5-amino-N-(3-chloro-4-fluorophenyl)-1-methyl-1H-pyrazole-4-carboxamide] | 500 to 10000
5-Amino-N-(3-chloro-4-fluorophenyl)-1-methyl-3-(3-(pyridin-4-yl)cyclopentyl)-1H-pyrazole-4-carboxamide [AIA-271] | < 100
COc1cc(-c2ncc[nH]2)ccc1C1CCC(c2nn(C)c(N)c2C(=O)Nc2ccc(F)c(Cl)c2)C1 (single isomer, unassigned) [AIA-352-2, 3-(3-(4-(1H-Imidazol-2-yl)-2-methoxyphenyl)cyclopentyl)-5-amino-N-(3-chloro-4-fluorophenyl)-1-methyl-1H-pyrazole-4-carboxamide] | < 100
Cn1nc(C2CC3CNC(=O)CC3C2)c(C(=O)Nc2ccc(F)c(Cl)c2)c1N (stereo not shown) [AIA-033] | < 100
COc1cc(C(=O)NCCS(C)(=O)=O)ccc1C1CCC(c2nn(C)c(N)c2C(=O)Nc2ccc(F)c(Cl)c2)C1 (stereo not shown) [AIA-387-2, 5-Amino-N-(3-chloro-4-fluorophenyl)-3-(3-(2-methoxy-4-((2-(methylsulfonyl)ethyl)carbamoyl)phenyl)cyclopentyl)-1-methyl-1H-pyrazole-4-carboxamide] | < 100
COC1CC2CC(c3nn(C)c(N)c3C(=O)Nc3ccc(F)c(Cl)c3)CC2C1 (stereo not shown) [AIA-285] | < 100

same assay, conditions: Hepatitis B virus, HePAD38, 120 h, 5 days, supernatant HBV DNA by qPCR, read-out: Viral Load EC50 Activity range

Compound | EC50 [nM]
Cn1nc(C2CC3CC(O)(C[S+]([O-])CC(F)(F)F)CC3C2)c(C(=O)Nc2ccc(F)c(Cl)c2)c1N (stereo not shown) [AIA-259-A, 5-Amino-N-(3-chloro-4-fluorophenyl)-3-((2r,5r)-5-hydroxy-5-((2,2,2-trifluoroethylsulfinyl)methyl)octahydropentalen-2-yl)-1-methyl-1H-pyrazole-4-carboxamide] | < 100
Cn1nc(C2CC3CC(O)(CSCC(F)(F)F)CC3C2)c(C(=O)Nc2ccc(F)c(Cl)c2)c1N (single isomer, unassigned) [AIA-258-2, 5-Amino-N-(3-chloro-4-fluorophenyl)-3-(5-hydroxy-5-(((2,2,2-trifluoroethyl)thio)methyl)octahydropentalen-2-yl)-1-methyl-1H-pyrazole-4-carboxamide] | < 100
CCN(CC)C1CC2CC(c3nn(C)c(N)c3C(=O)Nc3ccc(F)c(Cl)c3)CC2C1 (stereo not shown) [AIA-012, 5-Amino-N-(3-chloro-4-fluorophenyl)-3-(5-(diethylamino)octahydropentalen-2-yl)-1-methyl-1H-pyrazole-4-carboxamide] | 100 to 500
Cn1nc(C2CC3CC(CC(N)=O)CC3C2)c(C(=O)Nc2ccc(F)c(Cl)c2)c1N (stereo not shown) [AIA-021, 5-Amino-3-(5-(2-amino-2-oxoethyl)octahydropentalen-2-yl)-N-(3-chloro-4-fluorophenyl)-1-methyl-1H-pyrazole-4-carboxamide] | < 100
CCSC1CC2CC(c3nn(C)c(N)c3C(=O)Nc3ccc(F)c(Cl)c3)CC2C1 (stereo not shown) [AIA-029, 5-Amino-N-(3-chloro-4-fluorophenyl)-3-(5-(ethylthio)octahydropentalen-2-yl)-1-methyl-1H-pyrazole-4-carboxamide] | < 100
Cn1nc(C2CCC(c3ccc(Cl)cc3)C2)c(C(=O)Nc2ccc(F)c(Cl)c2)c1N (stereo not shown) [AIA-274, 5-Amino-N-(3-chloro-4-fluorophenyl)-3-(3-(4-chlorophenyl)cyclopentyl)-1-methyl-1H-pyrazole-4-carboxamide] | 100 to 500
Cn1nc(C2CCC(c3csc(C(F)(F)F)n3)C2)c(C(=O)Nc2ccc(F)c(Cl)c2)c1N (stereo not shown) [AIA-355, 5-Amino-N-(3-chloro-4-fluorophenyl)-1-methyl-3-(3-(2-(trifluoromethyl)thiazol-4-yl)cyclopentyl)-1H-pyrazole-4-carboxamide] | 500 to 10000
CC(C)S(=O)(=O)N1CC2CC(c3nn(C)c(N)c3C(=O)Nc3ccc(F)c(Cl)c3)CC2C1 (stereo not shown) [AIA-085, 5-Amino-N-(3-chloro-4-fluorophenyl)-3-(2-(isopropylsulfonyl)octahydrocyclopentyl[c]pyrrol-5-yl)-1-methyl-1H-pyrazole-4-carboxamide] | < 100
Cn1cnc(C2CCC(c3nn(C)c(N)c3C(=O)Nc3ccc(F)c(Cl)c3)C2)c1 (stereo not shown) [AIA-280, 5-Amino-N-(3-chloro-4-fluoro-phenyl)-1-methyl-3-[3-(1-methylimidazol-4-yl)cyclopentyl]pyrazole-4-carboxamide] | 100 to 500
Cn1nc(C2CC3CC(N4CCNC(=O)C4)CC3C2)c(C(=O)Nc2ccc(F)c(C#N)c2)c1N (stereo not drawn) [AIA-246, 5-Amino-N-(3-cyano-4-fluorophenyl)-1-methyl-3-(5-(3-oxopiperazin-l-yl)octahydropentalen-2-yl)-1H-pyrazole-4-carboxamide] | < 100
Cn1nc(C2CCC(c3ccccc3)C2)c(C(=O)Nc2cc(F)c(F)c(Br)c2)c1N (stereo not shown) [AIA-278, 5-Amino-N-(3-bromo-4,5-difluorophenyl)-1-methyl-3-(3-phenylcyclopentyl)-1H-pyrazole-4-carboxamide] | 100 to 500
Cn1nc(C2CC3CC(O)(CS(=O)(=O)C(C)(C)C)CC3C2)c(C(=O)Nc2ccc(F)c(Cl)c2)c1N (single isomer, unassigned) [AIA-260-1, 5-Amino-3-(5-((tert-butylsulfonyl)methyl)-5-hydroxyoctahydropentalen-2-yl)-N-(3-chloro-4-fluorophenyl)-1-methyl-1H-pyrazole-4-carboxamide] | < 100
Cn1nc(C2CCC(c3ccc(F)cc3)C2)c(C(=O)Nc2ccc(F)c(Cl)c2)c1N (stereo not shown) [AIA-281, 5-Amino-N-(3-chloro-4-fluorophenyl)-3-(3-(4-fluorophenyl)cyclopentyl)-1-methyl-1H-pyrazole-4-carboxamide] | < 100
Cn1nc(C2CC3CN(S(C)(=O)=O)CC3C2)c(C(=O)Nc2ccc(F)c(Cl)c2)c1N (stereo not shown) [AIA-024, 5-Amino-N-(3-chloro-4-fluorophenyl)-1-methyl-3-(2-(methylsulfonyl)octa hydrocyclopenta[c]pyrrol-5-yl)-1H-pyrazole-4-carboxamide] | < 100
Cn1nc(C2CC3CC(N4CCCC4)CC3C2)c(C(=O)Nc2ccc(F)c(Cl)c2)c1N (stereo not drawn) [AIA-040, 5-Amino-N-(3-chloro-4-fluorophenyl)-1-methyl-3-(5-(pyrrolidin-l-yl)octahydropentalen-2-yl)-1H-pyrazole-4-carboxamide] | < 100
Cn1nc(C2CC3CC(O)(CN4CCOCC4)CC3C2)c(C(=O)Nc2ccc(F)c(Cl)c2)c1N (single isomer, unassigned) [AIA-364-2, 5-Amino-N-(3-chloro-4-fluorophenyl)-3-(5-hydroxy-5-(morpholinomethyl)octahydropentalen-2-yl)-1-methyl-1H-pyrazole-4-carboxamide] | 100 to 500
